The values that follow are results of earlier work, collected in patent publication EP2103943A1, “GDF-15 for assessing a cardiovascular risk with respect to the administration of antiinflammatory drugs” (F. Hoffmann-La Roche AG, priority 2008, dated 2009).

As for `CS(=O)(=O)c1ccc(C2=C(c3ccccc3)C(=O)OC2)cc1` [Rofecoxib], the “additional cardiovascular incidents (myocardial infarction, stroke)” value (25 mg rofecoxib compared with a placebo, after 18 months of follow-up) is on record as 16 per 1,000 treated patients. For the same compound, the blood pressure levels result (25 mg rofecoxib compared with a placebo, early post-observation phase) was “higher blood pressure levels”. Also, the “rise in the rate of serious thromboembolic incidents” value (APPROVE study, patients without any recognisable cardiovascular risk, led to premature discontinuation) is 3.9 times.
